Laboratory results as given in US5270472A, “Alkanoyl L-carnitine amides with aminoacids and pharmaceutical compositions containing same for promoting regeneration of the nervous tissue, inhibiting neuronal degeneration, enhancing the process of learning and memory and for the treatment of coma” (Sigma-Tau Industrie Farmaceutiche Riunite S.p.A., priority 1991, dated 1993).
Structures can show the parent of a compound that is named as a salt.

What was measured:
[1] = test system: choline acetyltransferase (ChAT); test: Choline acetyltransferase (ChAT) activity in PC 12 cells; assay type: cell-based, rat; details: 1 mM, 6 days
Method: (§1) Rat pheochromocytoma ((PC 12) cells were grown in RPMI 1640, supplemented with 5% heat inactivated horse serum +5% heat inactivated fetal calf serum at 37° C. in humidified incubator with 5% CO2 atmosphere and fed on alternate days. At subconfluency, cells were dislodged by vigorous shaking and reseeded at 1:1 ratio. Acetyl L-carnitine ALCAR® and ST 857 were dissolved in RPMI and added to cells at the final concentrations indicated in the various experiments.
The method described by Fonnum, F. in "A rapid radiochemical method for the determination of choline acetyltransferase". J. of Neurochem. (1975) vol. 24, 407:409 was used. Briefly, the compounds were added to the culture medium at final concentration of 1 mM.
The cells were grown for 6 days in the presence of ST 857. The medium was changed every other day. On the sixth day the cells were harvested and resuspended directly in a homogenization buffer for ChAT activity assay. Protein content was assayed on an aliquot of the cell suspensions.

PC 12 cells = test: Neurite outgrowth experiment; assay type: cell-based, rat
Method: The rat pheochromocytoma (PC 12) cell line was chosen as an in vitro model system for NGF-responsive neurons. PC 12 cells are a cell line derived from a tumor of rat adrenal medulla that display NGFR similar to those described for sympathetic and sensory neurons, PC 12 typically respond to NGF by elongating neurites and developing into electrically excitable cells featuring some characteristics of the post-mitotic cholinergic neuronal phenotype.
as §1
PC 12 cells were plated out into 35 mm Petri dishes at a density 2×10^5 cells/ml. On the sixth day of either ALCAR® or ST 857 treatment (1 mM), the cells were added with NGF dissolved in RPMI 1640 at a suboptimal concentration (i.e. ineffective to stimulate neurite outgrowth) of 1 ng/mL (0.037 nM). On day 5 after addition, 100-120 cells from 5-12 randomly chosen microscope fields were counted and assayed for presence of neurities. […]

HCN-1A cells = test: Effect on cultured human cortical cell line (HCN-1A); assay type: cell-based
Text: (§2) The HCN-1A cells are a non-tumoral cell line derived from human cortical neuroblasts which respond to NGF by differentiating into bipolar or multipolar neurite-bearing neurons.
HCN-1A cells show immunoreactivity for different neurotransmitters such as GABA, glutamate, somatostatin, cholccystokinin-8 […] and VIP (vasoactive intestinal polypeptide).

NGFR mRNA = NGFR mRNA in HCN-1A cells; assay type: cell-based, human; details: following ST 857 treatment
Text: as §2

Tolerability, LD50 = details: mouse, in vivo, mice
Method: In mice, LD50 orally is higher than 2 g/kg; LD50 intraperitoneally is higher than 600 mg/kg.

[2] = Tolerability, intraperitoneal or oral; assay type: in vivo
[3] = in the presence of NGF (10 ng/mL)

SMILES	ChAT activity ([1]; in the absence of NGF) [nmoli ACh/mg/hour]	ChAT activity [1, 3] [nmoli ACh/mg/hour]	enhancement of the action of NGF on PC 12 cells (PC 12 cells; compared with ALCAR® treatment)	stimulation of neurite outgrowth (in words) (PC 12 cells; in the absence of NGF)	neurite outgrowth and cell differentiation (HCN-1A cells; 1 mM)	GABA immunoreactivity and formation of functional synapses (HCN-1A cells; in the presence and in the absence of NGF (10 ng/ml))	NGFR mRNA (NGFR mRNA)	LD50 (Tolerability, LD50; ip, intraperitoneally) [mg/kg]	LD50 (Tolerability, LD50; po, orally) [mg/kg]	tolerability [2]
CC(=O)O[C@H](CC(=O)[O-])C[N+](C)(C)C [ACETYL L-CARNITINE, acetyl L-carnitine, reference compound]	33.3 ± 4.2	133.3 ± 4.4	–	–	–	–	–	–	–	–
CC(=O)O[C@H](CC(=O)N[C@@H](CCCNC(=N)N)C(=O)O)C[N+](C)(C)C [ST 857, L-acetyl L-carnitinamide of L-arginine chloride hydrochloride]	46.6 ± 2.5	140.0 ± 8.9	enhanced by ST 857 treatment more potently than by ALCAR® treatment	effective in stimulating neurite outgrowth, even in the absence of NGF	resulted in neurite outgrowth and cell differentiation toward the neuronal phenotype	induced also GABA immunoreactivity in HCN-1A and formation of functional synapses	increased in these cells following ST 857 treatment, in a manner similar to that elicited by NGF	> 600	> 2000	well tolerated
